Experimental data from publication PMC4627656, “Combining Metabolite-Based Pharmacophores with Bayesian Machine Learning Models for Mycobacterium tuberculosis Drug Discovery” (PLoS ONE, 2015).
Converted amounts (≈) assume the structure as drawn. Where two headings read alike, the source gives them in different places.

Experiments:
[1] = test system: Mtb H37Rv strain; assay: Resazurin (Alamar Blue) MIC assay against replicating Mtb; format: cell-based, Mycobacterium tuberculosis; settings: for MIC: Mycobacterium tuberculosis, H37RV
[2] = in vitro; settings: African green monkey
[3] = physchem; format: physicochemical; settings: 37 °C, pH 7.4, aqueous buffer, kinetic from dmso stock
Procedure: Serial dilutions of the test agent were prepared in DMSO at 100x the final concentration. Test article solutions were diluted 100-fold into pH 7.4 phosphate-buffer saline (PBS) in a 96-well plate and mixed. After 2 h at 37°C, the presence of precipitate was detected by turbidity (absorbance at 540 nm). An absorbance value of greater than ‘mean + 3x standard deviation of the blank’ (after subtracting the background) was indicative of turbidity. For brightly colored compounds, a visual inspection of the plate was performed to verify the solubility limit determined by UV absorbance. The solubility limit was reported as the highest experimental concentration with no evidence of turbidity.

[4] = mouse, microsomes, pH 7.4
Procedure: The test agent was incubated in duplicate with mouse liver microsomes at 37°C. The reaction contained microsomal protein in 100 mM K3PO4, 2 mM NADPH, and 3 mM MgCl2 at pH 7.4. A control was run for each test agent omitting NADPH to detect NADPH-free degradation. At t = 0 and 60 min, an aliquot was removed from each experimental and control reaction and mixed with an equal volume of ice-cold Stop Solution (methanol containing propranolol as an internal standard). Stopped reactions were incubated at least ten min at -20°C, and an additional volume of water was added. The samples were centrifuged to remove precipitated protein, and the supernatants were analyzed by LC/MS/MS to quantitate the remaining parent. Data were reported as % remaining by dividing by the time zero concentration value.

[5] = test system: clinical strain 692; assay: AlamarBlue MIC (absorbance), strain panel: 692; format: cell-based; settings: Mycobacterium tuberculosis, pan-susceptible
[6] = in vitro; settings: human, Caco-2
[7] = Caco-2 cell permeability; settings: human
[8] = test system: Mtb (H37Rv)
[9] = test system: Mtb; set-up: method as in PMID 18502817; settings: cited from earlier work
[10] = test system: mammalian cell; settings: cited from earlier work
[11] = in vitro cultured Mtb H37Rv, lowest concentration inhibiting ≥90% growth, initial hits, quinoxaline di-N-oxides, positive controls, read-out: Mtb MIC (H37Rv)
[12] = read-out: Mtb MIC (H37Rv), in vitro cultured Mtb H37Rv, lowest concentration inhibiting ≥90% growth, initial hits, quinoxaline di-N-oxides, positive controls
[13] = in vitro cultured Mtb H37Rv, lowest concentration inhibiting ≥90% growth, initial hits, quinoxaline di-N-oxides, positive controls
[14] = 3.2 μg/mL (1.3X MIC), 6 h, vs DMSO

## CC(C)=CCC/C(C)=C/CCC(=O)c1c(C)[n+]([O-])c2cc(Cl)c(Cl)cc2[n+]1[O-] [SRI56]
[1]; [11]
  MIC: 2.5 µg/mL (≈ 5.91 µM)
[2]
  CC50 at 72 h: 4.5 µg/mL (≈ 10.6 µM)

## CCCCC(=O)c1c(C)[n+]([O-])c2ccc([N+](=O)[O-])cc2[n+]1[O-] [SRI50]
[3]
  solubility kinetic at 2 h: 125 µM (≈ 38.2 µg/mL)
[1]; [11]
  MIC: 0.32 µg/mL (≈ 1.05 µM)
[4]
  % Compound remaining after 1h in the absence of NADPH: 77.5%
  % Compound remaining after 1h in the presence of NADPH: 0.06%
[5]
  MIC: 0.16 µg/mL (≈ 0.524 µM)
[2]
  CC50 at 72 h: 3.4 µg/mL (≈ 11.1 µM)

## Cc1c(C(=O)c2cccnc2)[n+]([O-])c2cc(Cl)c(Cl)cc2[n+]1[O-] [SRI55]
[1]; [11]
  MIC: 2.5 µg/mL (≈ 7.14 µM)
[2]
  CC50 at 72 h: > 40 µg/mL

## Cc1c(C(=O)C2CC2)[n+]([O-])c2cc(Cl)c(Cl)cc2[n+]1[O-] [SRI58]
[6]
  Papp A→B at 2 h, 10 μM: 2.3 ×10⁻⁶ cm/s
  Papp B→A at 2 h, 10 μM: 0.57 ×10⁻⁶ cm/s
  efflux ratio at 2 h, 10 μM: 0.25
[3]
  solubility kinetic at 2 h: 125 µM (≈ 39.1 µg/mL)
[1]; [12]
  MIC: 1.2 µg/mL (≈ 3.83 µM)
[1]; [13]
  Mtb MIC (H37Rv): 1.25 µg/mL
[4]
  % Compound remaining after 1h in the absence of NADPH: 110%
  % Compound remaining after 1h in the presence of NADPH: 63.6%
[2]
  CC50 at 72 h: > 40 µg/mL

## CCCCC(=O)c1c(C)[n+]([O-])c2cc(Cl)c(Cl)cc2[n+]1[O-] [SRI54]
[6]
  Papp A→B at 2 h, 10 μM: 0.66 ×10⁻⁶ cm/s
  Papp B→A at 2 h, 10 μM: 0.1 ×10⁻⁶ cm/s
[3]
  solubility kinetic at 2 h: 15.6 µM (≈ 5.14 µg/mL)
[1]; [11]
  MIC: 2.5 µg/mL (≈ 7.59 µM)
[4]
  % Compound remaining after 1h in the absence of NADPH: 79.1%
  % Compound remaining after 1h in the presence of NADPH: 0%
[2]
  CC50 at 72 h: 15 µg/mL (≈ 45.6 µM)
[7]
  efflux ratio at 2 h, 10 μM: 0.15
[8]; [14]
  Genes down-regulated at minimum twofold versus control: 184 genes
  Genes up-regulated at least twofold versus control: 131 genes
[8]; 3.2 μg/mL, 6 h
  DNA repair genes down-regulated at least twofold: 2/59
  DNA repair genes up-regulated at least twofold: 12/59
  Methylcitrate cycle genes (prpC, prpD, icl1) induced more than fourfold versus control: 3/13
[8]; ORF01494, treated vs DMSO
  Avg. fold induction over four replicates, hypothetical protein ORF01494: 11.22
[8]; gene Rv0560c, treated vs DMSO
  Avg. fold induction over four replicates, Rv0560c: 38.01
[8]; gene Rv1130, treated vs DMSO
  Avg. fold induction over four replicates, Rv1130: 8.92
[8]; gene Rv3074, treated vs DMSO
  Avg. fold induction over four replicates, Rv3074: 8.59
[8]; gene gltA1 (Rv1131), treated vs DMSO
  Avg. fold induction over four replicates, gltA1: 15.16
[8]; top 100 most up- and down-regulated genes vs deposited Mtb transcriptional data
  Hierarchical clustering of transcriptional response: clustered most closely to the fatty acid biosynthesis inhibitor CD117

## CC(=O)c1c(C)[n+]([O-])c2ccc(Cl)cc2[n+]1[O-] [SRI4]
[1]; [11]
  MIC: 5 µg/mL (≈ 19.8 µM)
[2]
  CC50 at 72 h: > 40 µg/mL

## CC(=O)c1c(C)[n+]([O-])c2ccccc2[n+]1[O-] [SRI1, 1-(3-methyl-1,4-dioxy-quinoxalin-2-yl)-ethanone]
[1]; [11]
  MIC: 2.5 µg/mL (≈ 11.5 µM)
[2]
  CC50 at 72 h: > 40 µg/mL
[9]
  MIC previously identified: 3.13 µg/mL (≈ 14.3 µM)
[10]
  Mammalian cell cytotoxicity previously reported: no appreciable mammalian cell cytotoxicity

## c1coc(CNCc2c[nH]c3ccccc23)c1 [BAS 7571651, furan-2-ylmethyl-(1H-indol-3-ylmethyl)-amine]
[1]; [11]
  MIC: 40 µg/mL (≈ 177 µM)

## Cc1c(C(=O)C(C)C)[n+]([O-])c2cc(Cl)ccc2[n+]1[O-] [SRI28]
[1]; [11]
  MIC: 10 µg/mL (≈ 35.6 µM)

## CC(C)=CCCC(=O)c1c(C)[n+]([O-])c2cc(C)ccc2[n+]1[O-] [SRI36]
[1]; [13]
  Mtb MIC (H37Rv): 10 µg/mL

## CCC(=O)c1c(CC)[n+]([O-])c2ccc(OC)cc2[n+]1[O-] [SRI41]
[1]; [13]
  Mtb MIC (H37Rv): 40 µg/mL

## CCC(=O)c1c(C)[n+]([O-])c2ccc(C)cc2[n+]1[O-] [SRI37]
[1]; [13]
  Mtb MIC (H37Rv): 10 µg/mL

## COc1ccc2c(c1)[n+]([O-])c(C)c(C(=O)c1ccccc1)[n+]2[O-] [SRI9]
[1]; [11]
  MIC: 5 µg/mL (≈ 16.1 µM)

## O=C(NCCc1ccccn1)c1ccccc1[N+](=O)[O-] [JSF-2170]
[1]; synthesized BAS 00623753 and arylamide analogs (Table 1)
  Mtb MIC (H37Rv): >50 µg/mL

## CCC(=O)c1c(CC)[n+]([O-])c2cc(C)ccc2[n+]1[O-] [SRI32]
[1]; [11]
  MIC: 5 µg/mL (≈ 19.2 µM)

## CC(C)=CCCC(=O)c1c(C)[n+]([O-])c2cc(Cl)c(Cl)cc2[n+]1[O-] [SRI57]
[1]; [12]
  MIC: 1.2 µg/mL (≈ 3.38 µM)
[1]; [13]
  Mtb MIC (H37Rv): 1.25 µg/mL
[2]
  CC50 at 72 h: > 40 µg/mL

## COc1ccc2c(c1)[n+]([O-])c(C(=O)c1cccnc1)c(C)[n+]2[O-] [SRI12]
[1]; [11]
  MIC: 0.64 µg/mL (≈ 2.06 µM)
[2]
  CC50 at 72 h: 1.7 µg/mL (≈ 5.46 µM)
